Assay results reported in EP0413299A1, “Antibiotic composition” (MERCIAN CORPORATION, priority 1989, dated 1991).
Where two headings read alike, the source gives them in different places.

Tests used:
[1] = type: physicochemical; settings: pH 4
Method: Solubility of the samples was determined by using a […] dissolution apparatus (Toyama Sangyo Co., LTD.) and 200 ml of buffer (adjusted at pH 4.0, prepared by mixing JP dissolution test solution 1 and JP dissolution test solution II) at 37 ± 0.5°C with stirring at 100 rpm paddle rotation. 250 mg (potency equivalent) of sample was added to the test solution, and the solubility of the sample was determined by high performance liquid chromatography under time course investigation. […] However, the solubility decreased immediately after about 5 minutes because of crystallization of the antibiotic. […] After storage for one month at 60°C , the solubility of the granules of Reference 3 was no more than 240μg/ml after five minutes, and became the same as that of the crystalline powders after 60 minutes.

[2] = X-ray diffraction; type: physicochemical; settings: before storage
Method: The X-ray diffractions of the above-obtained samples were measured by using a JDX-8030 X-ray diffraction apparatus (JEOL LTD.) through a Ni-filter with a CuKα x-ray (40KV, 20mA) at a scanning speed of 1.2° /min. (Fig. 1).

[3] = acidic aqueous solution

## 4˝-O-(Para-methoxyphenylacetyl)tylosin
[1]
  solubility: no more than about a few micrograms per ml
[2]
  X-ray diffraction peaks: High X-ray diffraction peaks were observed
[3]; pH 2
  solubility: 1200 µg/mL
[3]; pH 4
  solubility: 10 µg/mL
[3]; pH 5
  solubility: 2 µg/mL
[3]; pH 6.8
  solubility: 0.5 µg/mL
